“And” between values parts separate entries of the source, which are not always exact repeats. Equal entries are not always repeated. Where two headings read alike, the source gives them in different places. Where a SMILES comes first, the peptide text is derived from it.
Assays:
TPO-R = biological target: T1, TPO-R (Homo sapiens, UniProt P40238); assay: Competition binding assay (equilibrium binding ELISA, MBP-TPO156 tracer) on immobilized TPO-R; settings: read-out: IC50
T1 construct: made in house
T1 sequence (P40238 26-491 limits assumed): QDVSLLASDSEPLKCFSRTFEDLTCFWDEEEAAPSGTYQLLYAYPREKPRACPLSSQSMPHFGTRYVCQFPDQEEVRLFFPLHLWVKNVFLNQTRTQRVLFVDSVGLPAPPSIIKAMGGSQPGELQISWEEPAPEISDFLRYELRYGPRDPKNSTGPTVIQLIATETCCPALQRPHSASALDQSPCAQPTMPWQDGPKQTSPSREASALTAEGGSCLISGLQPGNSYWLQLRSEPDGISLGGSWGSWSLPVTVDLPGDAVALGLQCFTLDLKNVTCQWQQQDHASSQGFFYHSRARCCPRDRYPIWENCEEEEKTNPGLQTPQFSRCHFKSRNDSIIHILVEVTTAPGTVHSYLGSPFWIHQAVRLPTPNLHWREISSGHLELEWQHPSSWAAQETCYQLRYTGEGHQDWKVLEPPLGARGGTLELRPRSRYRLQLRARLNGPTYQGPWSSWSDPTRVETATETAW
Description: A variety of methods can be used to evaluate IC50 values. For example, an equilibrium binding ELISA assay, using either MBP-TPO or lacI-peptide tracer, was used to determine whether the peptides inhibit the binding of TPO to the extracellular domain of the TPO receptor. Typically, the IC50 value were determined using the free peptide. The IC50 value can be determined using the free peptide, which optionally can be C-terminally amidated, or can be prepared as an ester or other carboxy amide.
Binding affinities of chemically synthesized peptides for TPO-R were measured in a competition binding assay. The wells of a microtiter plate were coated with 1 mg streptavidin, blocked with PBS/1% BSA, followed by 50 ng of biotinylated anti-receptor immobilizing antibody (Ab179). The wells were then treated with a 1:10 dilution of soluble TPO-R harvest. Various concentrations of peptide or peptide mimetic were mixed with a constant amount of a truncated form of TPO consisting of residues 1-156 fused to the C-terminus of maltose binding protein (MBP-TPO156). The peptide MBP-TPO156 mixtures were added to the TPO-R coated wells, incubated for 2 hours at 4° C. and then washed with PBS. The amount of MBP-TPO156 that was bound at equilibrium was measured by adding a rabbit anti-sera directed against MBP, followed by alkaline phosphatase conjugated goat anti-rabbit IgG. The amount of alkaline phosphatase in each well was then determined using standard methods.
The assay is conducted over a range of peptide concentrations and the results are graphed such that the y axis represents the amount of bound MBP-TPO156 and the x axis represents the concentration of peptide or peptide mimetic.

TPO receptor = biological target: T2, TPO receptor (Homo sapiens, UniProt P40238); assay: Microphysiometer assay: rate of acidification of extracellular medium on TPO receptor stimulation; assay type: cell-based
T2 sequence (P40238 26-635): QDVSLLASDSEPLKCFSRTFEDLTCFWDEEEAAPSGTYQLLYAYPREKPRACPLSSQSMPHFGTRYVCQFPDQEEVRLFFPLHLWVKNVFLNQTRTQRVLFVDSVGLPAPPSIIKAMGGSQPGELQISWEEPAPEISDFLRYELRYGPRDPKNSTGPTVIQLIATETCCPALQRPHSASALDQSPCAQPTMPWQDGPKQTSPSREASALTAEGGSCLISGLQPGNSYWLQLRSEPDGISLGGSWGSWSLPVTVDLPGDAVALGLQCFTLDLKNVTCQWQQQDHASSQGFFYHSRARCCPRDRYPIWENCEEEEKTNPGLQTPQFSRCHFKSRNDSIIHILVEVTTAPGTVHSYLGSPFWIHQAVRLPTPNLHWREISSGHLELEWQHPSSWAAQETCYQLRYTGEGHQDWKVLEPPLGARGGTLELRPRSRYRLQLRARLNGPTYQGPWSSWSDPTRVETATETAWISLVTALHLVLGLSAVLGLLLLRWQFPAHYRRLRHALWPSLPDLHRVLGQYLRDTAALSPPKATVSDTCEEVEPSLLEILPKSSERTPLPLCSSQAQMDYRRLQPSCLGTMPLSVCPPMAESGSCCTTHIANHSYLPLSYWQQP
Description: In this example cyclized compounds were subjected to three assays. […] Finally, a microphysiometer (Molecular Devices Corp.) assay was performed. […] The ranges for EC50 are symbolically indicated as for IC50 described above.

[1] = biological target: T3, human TPO-R (transfected Ba/F3 cells) (Homo sapiens, UniProt P40238); assay: Thrombopoietin dependent cell proliferation assay (MTT), TPO-R transfected Ba/F3 cells; assay type: cell-based
T3 construct: Murine IL-3 dependent Ba/F3 cells were transfected with full length human TPO-R; expressed in transfected cells; host or cells: murine Ba/F3 cells
T3 sequence (P40238 26-635): T2 sequence (P40238 26-635)
Description: Bioactivity of the peptides can be measured using a thrombopoietin dependent cell proliferation assay. Murine IL-3 dependent Ba/F3 cells were transfected with full length human TPO-R. In the absence of IL-3 (WEHI-3 conditioned media), these cells are dependent on TPO for proliferation.
The cells were grown in complete RPMI-10 media, containing 10% WEHI-3 conditioned media, then washed twice in PBS, resuspended in media which lacked WEHI-3 conditioned media, and added to wells containing dilutions of peptide or TPO at 2×10^4 cells/well. The cells were incubated for 48 hours at 37° C. in a humidified 5% CO2 atmosphere and metabolic activity was assayed by the reduction of MTT to formazan, with absorbance at 570 nm measured on an ELISA plate reader.

[2] = test system: marrow cells of Balb/C mice (mouse receptor); assay: Mouse marrow cells in liquid culture, AChE-positive megakaryocyte outgrowth; assay type: cell-based; settings: for Response (AChE-positive megakaryocytes): 7 days liquid culture
Description: To assess the feasibility of mice as a convenient test species, several in vitro experiments, designed to measure the activity of the test compounds on the mouse receptor, have been done. First, marrow cells, harvested from the femurs of 8 to 9 week one Balb/C mice, were incubated for 7 days in liquid culture with either rhuTPO or various concentrations of the test peptides. At the end of the incubation period, the cultures were concentrated by Cytospin, stained for acetylcholinesterase (AChE, a diagnostic of mouse megakaryocytes), and counted by microscopic analysis. One (X) nM rhuTPO gave rise to the outgrowth of very large (>40 um) non-adherent cells that stain for AChE. These cells appear to be mature megakaryocytes. From an initial seeding of 10^6 total marrow cells/ml (in 50 ml cultures) an estimated 1 to 2×10^6 megakaryocytes developed. This responce to TPO was designated as “maximal”. Control cultures containing no added growth factors produced very few AChE-positive cells. […] This finding was the first evidence that this peptide family is active on the murine receptor. In a second experiment, marrow cells were harvested and cultured in semi-solid medium (methylcellulose) containing either no factors, 1 nM rhuTPO, or 10 uM Peptide A. After 7 days in culture, colonies of large cell (presumed to be megakaryocytes) were counted and grouped into small colonies (3-5 cells) or large colonies (greater than 6 cells). TPO and the test peptides both produced substantially more colonies of both sized than did the negative control cultures.

[3] = test system: marrow cells (Mk precursor cell population); assay: Mouse marrow cells in semi-solid medium (methylcellulose), colonies of large cells; assay type: cell-based; settings: 1 nM TPO; 7 days in methylcellulose; replicates #1-1 to #2-2
Description: To assess the feasibility of mice as a convenient test species, several in vitro experiments, designed to measure the activity of the test compounds on the mouse receptor, have been done. First, marrow cells, harvested from the femurs of 8 to 9 week one Balb/C mice, were incubated for 7 days in liquid culture with either rhuTPO or various concentrations of the test peptides. At the end of the incubation period, the cultures were concentrated by Cytospin, stained for acetylcholinesterase (AChE, a diagnostic of mouse megakaryocytes), and counted by microscopic analysis. One (X) nM rhuTPO gave rise to the outgrowth of very large (>40 um) non-adherent cells that stain for AChE. These cells appear to be mature megakaryocytes. From an initial seeding of 10^6 total marrow cells/ml (in 50 ml cultures) an estimated 1 to 2×10^6 megakaryocytes developed. This responce to TPO was designated as “maximal”. Control cultures containing no added growth factors produced very few AChE-positive cells. […] In a second experiment, marrow cells were harvested and cultured in semi-solid medium (methylcellulose) containing either no factors, 1 nM rhuTPO, or 10 uM Peptide A. After 7 days in culture, colonies of large cell (presumed to be megakaryocytes) were counted and grouped into small colonies (3-5 cells) or large colonies (greater than 6 cells). […]

[4] = Table 4, cyclized compounds, microphysiometer, read-out: EC50 (nM) Microonys
[5] = Table 4, cyclized compounds, read-out: EC50 (nM) Proliferation

Row | IC50 (TPO-R; Table 4, cyclized compounds) [nM] | EC50 (TPO receptor; [4]) [nM] | EC50 [1, 5] [nM] | Molecule | further results
1 | ≤ 500 | < 200000 | < 200000 | CC[C@H](C)[C@@H]1NC(=O)[C@H](Cc2c[nH]c3ccccc23)NC(=O)[C@H](CCC(=O)O)NC(=O)[C@H](CCCNC(=N)N)NC(=O)[C@H](CC(C)C)NC(=O)[C@H]([C@@H](C)O)NC(=O)[C@@H]2CCCN2C(=O)CNC(=O)[C@H](CC(=O)O)NC(=O)[C@H](C)NC(=O)[C@@H](N)CCSSCC[C@@H](C(N)=O)NC(=O)[C@H](Cc2ccccc2)NC(=O)[C@H](CO)NC1=O (HELM PEPTIDE1{[N[C@@H](CCS[*:3])C(=O)[*:2]].A.D.G.P.T.L.R.E.W.I.S.F.[O=C([C@H](CCS[*:3])N[*:1])[*:2]].[am]}$PEPTIDE1,PEPTIDE1,1:R3-14:R3$$$V2.0) | 
2 | ≤ 500 | < 200000 | < 200000 | CC[C@H](C)[C@@H]1NC(=O)[C@H](Cc2c[nH]c3ccccc23)NC(=O)[C@H](CCC(=O)O)NC(=O)[C@H](CCCNC(=N)N)NC(=O)[C@H](CC(C)C)NC(=O)[C@H]([C@@H](C)O)NC(=O)[C@@H]2CCCN2C(=O)CNC(=O)[C@H](CC(=O)O)NC(=O)[C@H](C)NC(=O)CSCC[C@@H](C(N)=O)NC(=O)[C@H](Cc2ccccc2)NC(=O)[C@H](CO)NC1=O (HELM PEPTIDE1{[O=C(C[*:3])[*:2]].A.D.G.P.T.L.R.E.W.I.S.F.[O=C([C@H](CCS[*:3])N[*:1])[*:2]].[am]}$PEPTIDE1,PEPTIDE1,1:R3-14:R3$$$V2.0) | 
3 | ≤ 200000 | < 200000 | < 200000 | CC[C@H](C)[C@@H]1NC(=O)[C@H](Cc2c[nH]c3ccccc23)NC(=O)[C@H](CCC(=O)O)NC(=O)[C@H](CCCNC(=N)N)NC(=O)[C@H](CC(C)C)NC(=O)[C@H]([C@@H](C)O)NC(=O)[C@@H]2CCCN2C(=O)CNC(=O)[C@H](CC(=O)O)NC(=O)[C@H](C)NC(=O)CSC(C)(C)[C@@H](C(N)=O)NC(=O)[C@H](Cc2ccccc2)NC(=O)[C@H](CO)NC1=O (HELM PEPTIDE1{[O=C(C[*:3])[*:2]].A.D.G.P.T.L.R.E.W.I.S.F.[Pen].[am]}$PEPTIDE1,PEPTIDE1,1:R3-14:R3$$$V2.0) | 
4 | ≤ 500 | < 500 | < 500 | CC[C@H](C)[C@@H]1NC(=O)[C@H](Cc2c[nH]c3ccccc23)NC(=O)[C@H](CCC(=O)O)NC(=O)[C@H](CCCNC(=N)N)NC(=O)[C@H](CC(C)C)NC(=O)[C@H]([C@@H](C)O)NC(=O)[C@@H]2CCCN2C(=O)CNC(=O)[C@H](CC(=O)O)NC(=O)[C@H](C)NC(=O)[C@@H](N)C(C)(C)SSC[C@@H](C(N)=O)NC(=O)[C@H](Cc2ccccc2)NC(=O)[C@H](CO)NC1=O (HELM PEPTIDE1{[Pen].A.D.G.P.T.L.R.E.W.I.S.F.C.[am]}$PEPTIDE1,PEPTIDE1,1:R3-14:R3$$$V2.0) | 
5 |  |  |  | CC[C@H](C)[C@@H]1NC(=O)[C@H](Cc2c[nH]c3ccccc23)NC(=O)[C@H](CCC(=O)O)NC(=O)[C@H](CCCNC(=N)N)NC(=O)[C@H](CC(C)C)NC(=O)[C@H]([C@@H](C)O)NC(=O)[C@@H]2CCCN2C(=O)CNC(=O)[C@H](CC(=O)O)NC(=O)[C@H](C)NC(=O)[C@@H](N)CSSC[C@@H](C(N)=O)NC(=O)[C@H](CC2CCCCC2)NC(=O)[C@H](CO)NC1=O [F-CHA] (HELM PEPTIDE1{C.A.D.G.P.T.L.R.E.W.I.S.[Cha].C.[am]}$PEPTIDE1,PEPTIDE1,1:R3-14:R3$$$V2.0; N-terminus and C-terminus assumed) | IC50 (TPO-R; Table 5): ≤ 500 nM; EC50 (TPO receptor; Table 5, value in parentheses, read-out: EC50 (nM), microphysiometer results given in parentheses): < 500 nM; EC50 ([1]; Table 5, substitutions in cyclized compound, read-out: EC50 (nM) Cell Prolif.): < 500 nM
6 |  |  |  | S.A. alone: streptavidin alone [reference compound] | Response (AChE-positive megakaryocytes) ([2]; 1000 nM (putative 1:4 complex), maximal = 25–30% AChE staining cells): none
7 |  |  |  | TPO: recombinant human TPO (thrombopoietin) | Response (AChE-positive megakaryocytes) ([2]; 1 nM): “maximal”; megakaryocytes developed ([2]; One (X) nM rhuTPO, initial seeding 10^6 total marrow cells/ml (50 ml cultures), 7 days): 1 to 2×10^6 megakaryocytes; colonies of 3–5 large cells [3]: 15 and 12 and 16 and 13; colonies of 6–12 large cells [3]: 6 and 1 and 8 and 3
